# Like-named read-outs stand apart in the source and are kept apart here. Bridge positions count the residues as written; N and C are the ends. Square brackets hold non-standard residues; d marks the D form. Peptide text beside a SMILES is read from it. * marks the point of attachment. X1 = NC[C@@H](CC(=O)*)c1cccc(Cl)c1; Dab = NCC[C@H](N)C(=O)O; Dap = NC[C@H](N)C(=O)O
# Assays:
# Acinetobacter species = tested on: Acinetobacter species; set-up: method as in doi:10.1093/ofid/ofac492.1306, doi:10.1093/ofid/ofac492.1307; conditions: Acinetobacter species clinical isolates; cited from earlier work
# [1] = cited from earlier work
# Enterobacterales = tested on: Enterobacterales; set-up: method as in doi:10.1093/ofid/ofac492.1306, doi:10.1093/ofid/ofac492.1307; conditions: Enterobacterales clinical isolates; cited from earlier work
# P. aeruginosa = tested on: P. aeruginosa; set-up: method as in doi:10.1093/ofid/ofac492.1306, doi:10.1093/ofid/ofac492.1307; conditions: P. aeruginosa clinical isolates; cited from earlier work
# [2] = set-up: species or system human; AUC0-8 vs eGFR regression, Coefficient (95% CI) / AUC0-last vs eGFR regression, Intercept / AUC0-last vs eGFR regression, Coefficient (95% CI) / AUC0-∞ vs eGFR regression, Intercept / AUC0-∞ vs eGFR regression, Coefficient (95% CI) / AUC0-8 vs eGFR regression, Intercept: unit not given beside the values; conditions: in vivo
# Method: To model the relationship between renal function and PK parameters, a linear regression analysis was performed using log-transformed values of AUC0–8, AUC0–last, AUC0–∞, C max, and CL, which were dependent variables. The independent variable to predict the PK parameters was eGFR after adjusting for baseline covariates (age, gender, race, and body weight). Parameter estimates, standard errors, confidence intervals (CIs), and P-values were presented.
# [3] = human, in vivo; cited from earlier work
# [4] = human; cited from earlier work
# [5] = Safety/tolerability (TEAEs, laboratory, ECG), Phase 1 renal impairment study; type: in vivo, human
# [6] = rat, in vivo; cited from earlier work
# [7] = set-up: species or system human; conditions: in vivo
# Method: (§1) Subjects in Cohorts 1–4 had serial blood samples collected to determine plasma SPR206 concentrations at pre-dose (0) and 0.5, 1, 1.25, 1.5, 2, 2.5, 3, 5, 8, 10, 12, 18, 24, and 36 h post-dose. Total voided urine was collected over a 2-h interval from −2 to 0 h (pre-dose) and at 0–4, 4–8, 8–12, 12–24, and 24–36 h post-dose. For subjects in Cohort 5, blood samples were collected on dosing days 1 and 5 pre-dose (0 h) and 0.5, 1, 1.25, 1.5, 2, 2.5, 3, 5, 8, 10, 12, 18, 24, and 36 h after dosing. On day 5 (Period 2), the 1-h post-dose sample was collected immediately prior to initiation of dialysis, and the 5-h post-dose sample was collected 10 min prior to the end of dialysis. The 36-h post-dose samples on days 3 and 7 were collected prior to the next dialysis session if scheduled on the same day. In Period 2, blood samples were collected from both the inflow (arterial) and outflow (venous) lines pre-dialysis and at approximately 1, 2, 3, and 4 h after initiation of HD on day 5. If the HD session was shorter or longer than 4 h after the start of HD, a final sample was collected at the end of dialysis. Plasma and urine samples were assayed for SPR206 using a validated liquid chromatography tandem mass spectrometry method (QPS, LLC, Newark, DE, USA). For plasma, the assay range was 50 to 50,000 ng/mL, and for urine, the range was 100 to 50,000 ng/mL. In plasma, the intraday precision (% coefficient of variation) ranged from 1.3% to 7.7%, and the accuracy (% relative error) ranged from 1.6% to 6.0%. In urine, the intraday precision (% coefficient of variation) ranged from 1.7% to 7.5%, and the accuracy (% relative error) ranged from −4.8% to 7.3%. Additional details are provided in the Supplement. Urine PK parameters included Aet, Ae%, Aeu, CLR, Fe, and Feu.
# clinical = experiment: clinical; set-up: species or system human; AUC0–∞ LS GMR vs healthy subjects, range / AUC0–last LS GMR vs healthy subjects, range / AUC0−8, LS GMR (90% CI): unit not given beside the values; conditions: in vivo
# Excerpt: This was a Phase 1, open-label study to assess the safety, tolerability, and PK of a single 100-mg IV dose of SPR206 administered to healthy adults with normal renal function and those with varying degrees of RI including subjects with ESRD on HD. Subjects were screened within 28 days prior to dosing. Study drug administration occurred on day 1 for Cohorts 1–4 (normal renal function, mild RI, moderate RI, and severe RI) and on days 1 and 5 for Cohort 5 (ESRD on HD). Subjects remained confined to the clinical study unit from day −1 (1 day prior to study drug administration) until completion of the scheduled study procedures at the end of confinement on day 4 (Cohorts 1–4) or on day 7 (Cohort 5). A follow-up safety visit occurred 7 to 14 calendar days after the last dose for all subjects.
# On the morning of day 1, subjects in Cohorts 1–4 received a single 100-mg IV dose of […] infused over 1 h. Subjects in Cohort 5 received a single IV dose of SPR206 within 2 h (±1 h) after completion of regularly scheduled HD on day 1 (Period 1) and a second dose approximately 1 h prior to their regularly scheduled HD on day 5 (Period 2). Details of the HD procedure are provided in the Supplement.
# as §1, with “Supplement.” for “Supplement. Urine PK parameters included Aet, Ae%, Aeu, CLR, Fe, and Feu.”
# For all cohorts, the following PK parameters were calculated using noncompartmental methods based on plasma SPR206 concentrations: C max, T max, AUC0−last, AUC0−8, AUC0−∞, terminal elimination half-life (t 1/2), CL, and volume of distribution at the terminal phase (V Z). For Cohort 5, additional parameters were extraction ratio (ER), estimated hemodialysis clearance, and amount of the dose removed by hemodialysis. The ER was calculated as 100 × [(CA − CV)/CA], where CA and CV were predialyzer and postdialyzer paired drug concentrations at the arterial and venous sites. SPR206 clearance during HD (CLHD) was calculated using the following equation: CLHD = Q × ER, where Q was the known blood flow through the dialyzer. The amount of SPR206 removed by dialysis (XHD) was estimated by multiplying the AUC during dialysis [i.e., AUC from the beginning of dialysis to end of dialysis (AUCon–HD)] by CLHD: XHD = AUCon–HD × CLHD.
# Mean and individual plasma concentration-time curves were tabulated for each cohort (and for Cohort 5 subjects by period). […]
# [8] = human, in vivo, cited from earlier work
# kidney cell = conditions: cited from earlier work
compound,measurement,setting,value
colistin,MIC90,Acinetobacter species,1 µg/mL
same,route of elimination,[1]; in vivo,eliminated primarily by non-renal mechanisms
same,MIC90,Enterobacterales,0.5 µg/mL
same,MIC90,P. aeruginosa,1 µg/mL
CC(C)C[C@@H]1NC(=O)[C@@H](Cc2ccccc2)NC(=O)[C@H](CCN)NC(=O)[C@@H](NC(=O)[C@H](CN)NC(=O)[C@@H](NC(=O)C[C@H](CN)c2cccc(Cl)c2)[C@@H](C)O)CCNC(=O)[C@H]([C@@H](C)O)NC(=O)[C@H](CCN)NC(=O)[C@H](CCN)NC1=O [SPR206] (X1-T[Dap][Dab][Dab][dF]L[Dab][Dab]T; lactam 3-C (inferred)),"AUC0-8 vs eGFR regression, Coefficient (95% CI)",[2],"−0.0063 (−0.0083, –0.0044)"
same,"AUC0-8 vs eGFR regression, Intercept",[2],3.5
same,"AUC0-last vs eGFR regression, Coefficient (95% CI)",[2],"−0.0147 (−0.0168, –0.0125)"
same,"AUC0-last vs eGFR regression, Intercept",[2],4.5
same,"AUC0-∞ vs eGFR regression, Coefficient (95% CI)",[2],"−0.0161 (−0.0190, –0.0131)"
same,"AUC0-∞ vs eGFR regression, Intercept",[2],4.6
same,"C max vs eGFR regression, Coefficient (95% CI)",[2],"−0.0018 (−0.0040, 0.0005)"
same,"C max vs eGFR regression, Intercept",[2],2.0
same,"CL vs eGFR regression, Coefficient (95% CI)",[2],"0.0172 (0.0148, 0.0196)"
same,"CL vs eGFR regression, Intercept",[2],0.1
same,AUC0–8,[3],20100 ng·h/mL
same,C max,[3],4400 ng/mL
same,Protein binding,[4],≤ 12.8%
same,"deaths, treatment-related serious AEs, TEAEs leading to study discontinuation",[5]; all cohorts,"No deaths, treatment-related serious AEs, or TEAEs leading to study discontinuation were reported"
same,"TEAE headache, overall incidence",[5]; in vivo,13.5%
same,"TEAE paresthesia, overall incidence",[5]; in vivo,8.1%
same,"clinical laboratory results, ECG findings, physical examination",[5]; in vivo,No clinically significant abnormalities
same,relation of the two serious (severe) TEAEs to study drug,[5]; in vivo,unrelated to study drug
same,serum creatinine levels from screening through follow-up,[5]; in vivo,remained stable
same,subjects whose TEAEs were mild,[5]; in vivo,19 (51.4%) subjects (%)
same,subjects with at least one TEAE,[5]; in vivo,23 (62.2%) subjects (%)
same,"subjects with moderate TEAEs (infusion site phlebitis, drug hypersensitivity) leading to study drug discontinuation",[5]; in vivo,5.4%
same,subjects with treatment-related AEs,[5]; in vivo,13 (35.1%) subjects (%)
same,"treatment-related adverse events, severity",[5]; in vivo,Mostly mild but no serious treatment-related adverse events were reported
same,"TEAE oral paresthesia, overall incidence","[5]; in vivo, po",8.1%
same,kidney exposure compared with polymyxin B,[6],lower kidney exposure
same,mean CLR as % of total CL,[7]; human,24.6%
same,time up to which urine concentrations were quantifiable,[7],up to 36 h
same,time within which SPR206 was excreted in urine,[7],≤ 12 h
same,AUC0–last greater than healthy subjects,clinical; human,131%
same,CL lower than healthy subjects,clinical; human,75%
same,time of peak plasma concentration (end of infusion),clinical; human,1 h
same,AUC(0-t),"clinical; human, AUC0–8, LS GM (SE)",21800 ng·h/mL
same,AUC(0-t),"clinical; human, AUC0−8, LS GM (SE)",17300 ng·h/mL
same,Cmax,"clinical; human, C max, LS GM (SE)",5900 ng/mL
same,Cmax,"clinical; human, iv, C max, geometric mean (CV %)",5900 ng/mL
same,Cmax,"clinical; human, mean peak concentration (C max)",~6500 ng/mL
same,"AUC0–last LS GMR vs healthy subjects, range",clinical,1.39-3.39
same,"AUC0–∞ LS GMR vs healthy subjects, range",clinical,1.39-4.09
same,"AUC0−8, LS GMR (90% CI)",clinical,"0.59 (0.52, 0.67)"
same,"C max LS GMR vs healthy subjects, range",clinical,1.07-1.14
same,"CL LS GMR vs healthy subjects, range",clinical,0.71-0.24
same,mean AUC0–last greater in subjects with RI vs healthy subjects,clinical,39-239%
same,"mean AUC0–last lower, dialyzed vs nondialyzed",clinical,51%
same,mean plasma CL lower vs healthy subjects,clinical,29-76%
same,AUC0–∞,[8]; iv,20400 ng·h/mL
same,C max,[8]; iv,5300 ng/mL
same,total CL,[8]; iv,5.0 L/h
same,pharmacokinetic profile in a Phase 1 study,[8],dose-proportional
same,tolerability in a Phase 1 study,[8],well tolerated
same,kidney cell cytotoxicity compared with polymyxin B,kidney cell,lower kidney cell cytotoxicity
polymyxin B,route of elimination,[1],eliminated primarily by non-renal mechanisms
colistin methanesulfonate,route of elimination,[1]; in vivo,eliminated predominantly by renal excretion

# Reference: article PMC10648942, “Safety and pharmacokinetics of SPR206 in subjects with varying degrees of renal impairment” (Antimicrobial Agents and Chemotherapy, 2023)
